Reference: publication PMC5882637, “Ethanol potentiates the genotoxicity of the food-derived mammary carcinogen PhIP in human estrogen receptor-positive mammary cells: mechanistic support for lifestyle factors (cooked red meat and ethanol) associated with mammary cancer” (Archives of Toxicology, 2018)
One block for each compound: values may come before it.

Experiments:
CYP1B1 mRNA expression [1] = assay: RT-qPCR CYP1B1 mRNA, MCF-7; conditions: MCF-7
Procedure: (§1) Cells were cultured routinely in 75-cm^2 flasks in a humidified incubator at 37 °C, 5% CO2.
(§2) Following treatment, cells were lysed using TRIZOL reagent and chloroform (0.2 ml) was added in each sample and centrifuged 12,000xg (10 min 2–8 °C). The upper aqueous phase was transferred to a fresh tube and 5 µg of RNase-free glycogen (as carrier to aqueous phase) and 0.5 ml of isopropyl alcohol was added to precipitate RNA and incubated (37 °C, 10 min). Following incubation, lysates were centrifuged at 12,000xg (10 min 2–8 °C). The gel-like pellet was washed with ethanol and re-dissolved in RNase-free water with heating (55–60 °C). Extracted RNA was quantified by UV spectroscopy (UV–VIS Nano-spectrophotometer, Implen, Essex, UK) and purity was assessed from 260/280 nm and 260/230 nm ratios. Reverse transcription (RT) of extracted RNA (100–500 ng) was completed according to manufacturer’s protocol (Invitrogen) and qPCR was performed using predesigned Taqman gene expression assays and FAST PCR master mix (Taqman, Applied Biosystems, Life technologies) using a StepOnePlus fast real-time PCR system (Applied Biosystems, Life technologies). Target gene expression was normalized to GAPDH and quantified using the delta-Ct method (Livak and Schmittgen [2001]).

CYP1A2 mRNA expression [2] = assay: RT-qPCR CYP1A2 mRNA, MCF-7; conditions: Fig. 2a
Procedure: as §1, §2

MCF-7 cells [3] = assay: Cytotoxicity (cell counting, TrypanBlue exclusion), MCF-7
Procedure: as §1
(§3) Briefly, cells were seeded at a density of 5 × 10^4 cells per well in 24-well plate. Cells were treated with PhIP or ethanol as detailed previously. Following treatment with chemicals and harvesting (48 h), cells were trypsinised, the cell concentration adjusted to 2 × 10^5 and re-suspended in serum-free R0 (serum-free media) with 2% pluronic acid medium (GIBCO, Life technologies) and cytotoxicity was determined by counting cells in a haemocytometer with TrypanBlue exclusion (GIBCO, Life technologies). For the MN assay, cells were spread on a microscope slide using a cytospin. Cells at a density of 2 × 10^4 cells per slide were fixed with 100% methanol and stained for 60 s with acridine orange (0.1 mg ml^−1 dissolved in PBS, Sigma-Aldrich). Frequency of MN was scored in 2000 cells per sample and three biological replicates were performed per treatment.

CYP1A2 mRNA expression [4] = assay: RT-qPCR CYP1A2 mRNA, MDA-MB-231; conditions: Fig. 2c
Procedure: as §1, §2

MDA-MB-231 cells [5] = assay: Cytotoxicity (cell counting, TrypanBlue exclusion), MDA-MB-231
Procedure: as §1, §3

CYP2E1 mRNA expression = assay: RT-qPCR CYP2E1 mRNA, MCF-7; conditions: ICI 182,780 1 µM, Fig. 4c
Procedure: as §1
For STAT3 inhibition, cells were co-treated for 24 h with PhIP and 25 µM STAT3 inhibitor (STAT3 inhibitor VIII 5, 15 diphenylporphyrin, Millipore, Feltham, UK). STAT3 inhibitor was dissolved in DMSO. For ethanol treatment, media was supplemented with different concentrations of ethanol (10 mM-100 mM, Sigma-Aldrich) and was added to the cells. In some experiments, N-acetyl-cysteine (NAC) (10 mM, Sigma-Aldrich) diluted in phosphate-buffered saline (PBS) was added to incubations.
as §2

CYP1B1 mRNA expression [6] = assay: RT-qPCR CYP1B1 mRNA, MDA-MB-231; conditions: 24 h
Procedure: as §1, §2

STAT3 mRNA expression = assay: qPCR STAT3 mRNA, MCF-7; assay type: cell-based, human; conditions: co-treatment with PhIP, Fig. 4b
Procedure: as §1, §2

MDA-MB-231 cells [7] = assay: Micronucleus (MN) assay, MDA-MB-231
Procedure: as §1, §3

MCF-7 cells [8] = assay: Micronucleus (MN) assay, MCF-7
Procedure: as §1, §3

[9] = etoposide positive control (1.25 µM)

SMILES: C[C@]12CC[C@@H]3c4ccc(O)cc4CC[C@H]3[C@@H]1CC[C@@H]2O [E2, Estradiol]
CYP1B1 mRNA expression vs vehicle control (CYP1B1 mRNA expression [1]; 24 h, E2 1 µM, Fig. 2b): upregulated
CYP1A2 mRNA expression vs vehicle control (CYP1A2 mRNA expression [2]; 24 h, E2 1 µM): No significant change
change in cell survival following treatment (MCF-7 cells [3]; Fig. 1a): No significant change
CYP1A2 mRNA expression vs vehicle control (CYP1A2 mRNA expression [4]; 24 h, E2 1 µM): No significant change
change in cell survival following treatment (MDA-MB-231 cells [5]; Fig. 1b): No significant change

SMILES: COc1cc([C@@H]2c3cc4c(cc3[C@@H](O[C@@H]3O[C@@H]5CO[C@@H](C)O[C@H]5[C@H](O)[C@H]3O)[C@H]3COC(=O)[C@H]23)OCO4)cc(OC)c1O [Etoposide, reference compound]
Cytotoxicity (percent survival ± SD) (MCF-7 cells [3]; [9]): 81.7% ±1.4
Cytotoxicity (percent survival ± SD) (MDA-MB-231 cells [5]; [9]): 83.7% ± 2.3

effect of concurrent ICI on PhIP-mediated induction of CYP1B1 (CYP1B1 mRNA expression [1]; 24 h, p = 0.05): significantly inhibited
effect of ICI co-treatment on E2-upregulated CYP1B1 expression (CYP1B1 mRNA expression [1]; E2 1 µM, Fig. 2b): attenuated significantly
effect of ICI on CYP2E1 expression (PhIP co-treatment) (CYP2E1 mRNA expression): significantly blocked
effect of concurrent ICI on PhIP-mediated induction of CYP1B1 (CYP1B1 mRNA expression [6]): in MCF-7 cells only
effect of ICI on PhIP upregulation of CYP1A2 mRNA (CYP1A2 mRNA expression [2]): unaffected
effect of ICI on PhIP upregulation of CYP1A2 mRNA (CYP1A2 mRNA expression [4]): unaffected
SMILES: C[C@]12CC[C@@H]3c4ccc(O)cc4C[C@@H](CCCCCCCCC[S+]([O-])CCCC(F)(F)C(F)(F)F)[C@H]3[C@@H]1CC[C@@H]2O (stereo partly shown) [ICI, Fulvestrant, reference compound]
effect of ICI on PhIP-mediated STAT3 increase (STAT3 mRNA expression): inhibited
effect of ICI co-incubation on MN induction by etoposide (MDA-MB-231 cells [7]; Fig. 1): not affected
effect of ER antagonist (ICI) on DNA damaging ability of PhIP (MDA-MB-231 cells [7]; Fig. 1d): no change
effect of ICI co-incubation on MN induction by etoposide (MCF-7 cells [8]; Fig. 1): not affected
effect of ICI on E2-mediated genotoxicity (MCF-7 cells [8]; Fig. 1): attenuated
effect of ICI co-treatment on PhIP MN formation (MCF-7 cells [8]; p < 0.001, Fig. 1c): significantly attenuated
